# Results reported in patent US8389514B2, “Cyanoaminoquinolones and tetrazoloaminoquinolones as GSK-3 inhibitors” (Kyorin Pharmaceutical Co., Ltd., priority 2007, dated 2013).
# Key:
# E. coli, ATCC8739 = experiment: Antibacterial activity (MIC), E. coli; type: cell-based; settings: Escherichia coli
# Text: (§1) As used herein, a minimum inhibitory concentration (MIC) for bacterial growth assay is the lowest level of a compound needed to cause an inhibition to bacterial growth in culture medium. In certain embodiments, the antibacterial activity of compounds herein, measured as MIC.
# (§2) In certain embodiments, GSK3 inhibitors provided herein are substantially free of antibacterial activity or having very low antibacterial activity. The antibacterial activity can be measured by methods known in the art by estimating a minimum inhibitory concentration (MIC) for test compounds. A MIC is the lowest level of a compound needed to cause an inhibition to bacterial growth in a culture medium. […] (Clinical and Laboratory Standards Institute. Methods for Dilution Antimicrobial Susceptibility Tests for Bacteria That Grow Aerobically; Approved Standard-Sixth Edition: CLSI document […]. CLSI, Wayne, Pa. (2003))
# (§3) Antibacterial activity for E. coli, ATCC8739 and S. aures Smith is expressed as MIC (μM).
# [1] = target: T1, recombinant full-length human GSK3β (Homo sapiens, UniProt P49841); experiment: GSK3β enzyme cell free luciferase-coupled kinase assay; type: biochemical; settings: 5 μM ATP
# T1 construct: recombinant full-length human GSK3β (Upstate); purchased Upstate
# T1 sequence (P49841 whole entry): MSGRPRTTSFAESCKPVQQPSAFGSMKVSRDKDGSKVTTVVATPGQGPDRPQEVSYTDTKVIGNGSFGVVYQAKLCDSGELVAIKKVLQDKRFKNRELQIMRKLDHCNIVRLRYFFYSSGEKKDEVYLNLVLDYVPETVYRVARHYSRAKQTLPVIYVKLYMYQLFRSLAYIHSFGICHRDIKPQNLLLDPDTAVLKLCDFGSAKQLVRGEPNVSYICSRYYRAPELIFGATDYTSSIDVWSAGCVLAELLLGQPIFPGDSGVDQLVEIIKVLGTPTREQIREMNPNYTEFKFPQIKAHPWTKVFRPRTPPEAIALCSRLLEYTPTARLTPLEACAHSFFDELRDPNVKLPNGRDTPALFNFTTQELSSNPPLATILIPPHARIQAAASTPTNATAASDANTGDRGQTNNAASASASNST
# Method: All coupled-luciferase assays are performed by using a brief incubation with firefly luciferase (Promega) after completion of the kinase assay. KinaseGlo Plus is used for reading kinase reactions with ATP>10 μM, KinaseGlo for ATP<10 μM. The assay volume in a 384-well plate for the kinase reaction is 30 microliters.
# 10-25 ng of recombinant full-length human GSK3β (Upstate) is incubated in the presence or absence of compound at varying concentrations for 1 hour at 30 degrees Celsius in 20 mM MOPS, pH 7.0, 10 mM magnesium acetate, 0.2 mM EDTA, 2 mM EGTA, 30 mM magnesium chloride, 62.5 μM phospho-glycogen synthase peptide-2, 5 μM ATP, 10 mM β-glycerol phosphate, 1 mM sodium orthovanadate and 1 mM dithiothreitol. Proceed to KinaseGlo luciferase reaction (see below).
# Following the completion of the kinase reaction an equal volume of KinaseGlo or KinaseGlo Plus luciferase reagent (Promega) is added and the luminescence read using a luminescence plate reader within 5-10 minutes. Compound activity is expressed as % inhibition relative to maximal inhibition observed at the maximal dose and IC50 values then calculated using curve fitting software (GraphPad Prizm).
# S. aureus Smith = experiment: Antibacterial activity (MIC), S. aureus Smith; type: cell-based; settings: Staphylococcus aureus
# Text: as §1, §2, §3
SMILES,"MIC (E. coli, ATCC8739) [µM]",IC50 [1] [nM],MIC (S. aureus Smith) [µM]
C[C@H]1COc2c(NCCCn3ccnc3)c(F)c(N)c3c(=O)c(-c4nnn[nH]4)cn1c23,> 257,10 to 100,> 257
CCN(CCCNc1c(F)c(N)c2c(=O)c(-c3nnn[nH]3)cn3c2c1OC[C@@H]3C)c1ccccc1,,10 to 100,
C[C@H]1COc2c(NCCCc3ccccn3)c(F)c(N)c3c(=O)c(-c4nnn[nH]4)cn1c23,,< 10,
